From patent publication US10307398B2, “Resuscitation composition and methods of making and using” (Regents of the University of Minnesota, priority 2016, dated 2019)
Values after ≈ are worked out from the molar mass of the structure shown. Values joined by “and” are separate entries in the source; they are usually repeats but may differ in a detail not shown here. Equal entries are not always repeated. Each block holds one compound with its values, some of them ahead of it.

Experiments:
[1] = water vapor sorption of BHB; assay type: physicochemical; conditions: 25° C.
Procedure: Water vapor sorption. About 5 mg of sample was placed in the quartz sample pan of an automated vapor sorption balance (DVS-1000, Surface Measurement Systems, London, UK), maintained at 25° C. It was dried under dry nitrogen purge (flow rate 200 mL/min) to constant weight. Equilibrium was assumed to have been achieved if the mass change was <0.001% over 30 min. […] Equilibrium was assumed to have been achieved if the mass change was <0.005% over 30 min. The microbalance was calibrated periodically using a 100 mg standard weight.
In order to gain a deeper understanding into the water-BHB interaction, the ‘as is’ BHB was heated in the TGA up to 120° C., cooled to RT and transferred to the sample chamber of the water sorption analyzer. The other relevant details are provided in the Experimental section. There was no water sorption up to 15% RH and then the sample gained ˜3% water at 20% RH (FIG. 10). This is in excellent agreement with the water content in ‘as is’ BHB. […] However, under the experimental conditions in the water sorption analyzer (maximum dwell time of 360 minutes at any RH), equilibrium was not attained. Therefore, when the RH was further increased to 55%, a pronounced weight increase again was observed. […] There were two RH ranges, (0-20% and 35-55%) where hysteresis was observed.

[2] = cited from earlier work
[3] = physchem
Procedure: Assuming formation of 1:1 complex between drug and ligand, the complexation efficiency (CE) can be calculated from the slope of the phase-solubility diagram:
[formula] where So is the intrinsic substrate solubility and k1:1 stability constant of the complex.
Solubility Studies. […] An excess amount of MLT was added either to water or PVP solution (concentration ranging from 0.1 to 20% w/v) in polypropylene tubes (protected from light) and incubated with end-over-end rotation at 25° C. until equilibrium was achieved (72 hours). An aliquot was filtered (0.45 μm membrane) and the absorption measured at 270 nm (Epoch microplate spectrophotometer, BioTek, Winooski, Vt.).
PVP is known to form water soluble or insoluble complexes with various drugs with either enhancement or reduction in solubility.

[4] = solubility of melatonin in excipient solutions; assay type: physicochemical; conditions: aqueous with cosolvent or surfactant or cyclodextrin, thermodynamic from solid
Procedure: A saturated melatonin solution was prepared containing the indicated excipient concentrations and incubated end over end at room temperature for 72 hours. After 72 hours, solutions were filtered through a […] filter and diluted 1:10. Absorption was measured spectrophotometrically at 287 nm (excipient solutions alone were used as blanks).

water gain (water sorption) ([1]; at 20% RH, BHB previously heated to 120° C.): ~3%
increase in weight (water sorption, deliquescence) ([1]; at 50% RH): ~40%
SMILES: C[C@@H](O)CC(=O)O [BHB, D-β-hydroxybutyrate]

SMILES: CC(O)COC[C@H]1O[C@@H]2O[C@H]3[C@H](O)[C@@H](O)[C@@H](O[C@H]4[C@H](O)[C@@H](O)[C@@H](O[C@H]5[C@H](O)[C@@H](O)[C@@H](O[C@H]6[C@H](O)[C@@H](O)[C@@H](O[C@H]7[C@H](O)[C@@H](O)[C@@H](O[C@H]8[C@H](O)[C@@H](O)[C@@H](O[C@H]1[C@H](O)[C@H]2O)O[C@@H]8COCC(C)O)O[C@@H]7COCC(C)O)O[C@@H]6COCC(C)O)O[C@@H]5COCC(C)O)O[C@@H]4COCC(C)O)O[C@@H]3COCC(C)O (stereo partly drawn) [HPbCD, Hydroxypropyl-beta-cyclodextrin]
solubility [2]: exceeds 600 mg/ml

molar ratio of total drug to free drug [3]: 1.17
slope of the phase solubility diagram [3]: 0.030
solubility thermodynamic at 72 h ([3]; 25 °C, water, thermodynamic from solid): ~8 mM (≈ 1860 µg/mL)
solubility at 72 h ([4]; 10% HPbCD/5% PEG400/5% PVP K12 solution, in 10% HPbCD/5% PEG400/5% PVP K12, room temperature): > 43000 µM and > 10000 µg/mL
solubility at 72 h ([4]; 20% PVP solution, in 20% PVP, room temperature): > 43000 µM and > 10000 µg/mL
SMILES: COc1ccc2[nH]cc(CCNC(C)=O)c2c1 [melatonin, 5-methoxy-N-acetyltryptamine]
